Results taken from patent US6683105B2 (priority 1997, dated 2004).
“Also recorded” adds a separate entry of the source.

Key:
human plasma BChE = target: T1, human plasma BChE (Homo sapiens, UniProt P06276); assay: BChE inhibition, IC(50) by logit plot; type: biochemical; settings: BChE compared with AChE
T1 construct: human plasma BChE; from tissue; host or cells: human plasma
Description: The IC (50) values can be determined for such inhibitors using methods well known in the art. In such assay the pharmacological activity of each compound, as an IC (50), defined as the concentration, in nanomoles, required to inhibit 50% of the enzyme activity of AChE and BChE, is determined separately. For determination of IC (50) values, the enzyme activity of each concentration was expressed as a percent of that determined in the absence of each compound. This then was transformed into a logit format, where logit=In (% activity/[100-% activity]), and was plotted as a function of the log concentration of the compound. IC (50) values (i.e., logit=In (50/[100−5O]=0) were determined only from correlation coefficients (r^2) of less than −0.985 and when more than 50% inhibition was achieved from duplicate samples. The selectivity ratio is then determined by comparing the IC (50) values obtained for each compound with AChE to that for BChE.

[1] = system: βAPP secretion, glioblastoma, HeLa, neuroblastoma and PCI2 cell lines; settings: neuronal cells treated with cholinesterase inhibitors; cited from earlier work
[2] = system: aged Fischer-344 (F344) rats; assay: One-way active avoidance pretraining in straight runway; type: in vivo, rat; settings: for mean (s.e.m.) avoidances: pretraining, i.p. daily
Source text: (§1) Male F344 rats 21-22 months old were obtained from Harlan-Sprague-Dawley under contract from the National Institute on Aging. They were maintained two per cage in a vivarium at the Gerontology Research Center under specific pathogen free conditions as characterized previously.
(§2) As previously described, the Stone maze is constructed of translucent plastic with a grid floor wired for scrambled foot shocks and is surrounded by gray walls to reduce availability of extra-maze cues. The only other apparatus was a straight runway (2 m) used for pretraining. Similar to the maze, the runway was also constructed of translucent plastic, and contained a grid floor wired for scrambled foot shocks, and was surrounded by gray walls.
(§3) […] On days 3-5 injections were made 30 min prior to behavioral testing.
Beginning on day 2 rats were provided training in one-way active avoidance in the straight runway. On each trial, the rat had to locomote from the start box to the goal box within 10 s to avoid the onset of foot shock (0.8 mA). Rats received 10 trials on day 2 and 10 trials on day 3. Training was terminated when the rat met a performance criteria of eight avoidances within 10 consecutive trials within a maximum of 30 trials. Only rats meeting this criterion were tested in the Stone maze on the next day.

[3] = system: aged Fischer-344 (F344) rats; assay: 14-unit T-maze (Stone maze) learning; type: in vivo, rat
Source text: In the present study we assessed the effects of chronic cymserine treatment (5 days) on performance of aged Fischer-344 (F344) rats (21-22 months old) in a 14-unint T-maze, referre to as the Stone maze.
as §1, §2, §3
Rats received training in the Stone maze scheduled as a 4-trial session during the morning and afternoon on days 4 and 5. During each trial, the rat had to locomote from a start box to a goal box through five maze segments each separated by guiiltine doors. The reinforcement contingency required the rat to negotiate each segment within 10 s to avoid the onset of mild foot shock (0.8 mA), which was terminated when the animal moved through the door into the next segment. After entry into succeeding segments, the door from the preceding segment was closed to prevent backtracking. Recorded as deviations from the correct pathway, errors were the primary dependent variable and were counted automatically by a series of infrared sensors connected to a microprocessor. Run time from the start box to the goal was also recorded automatically. The frequency and duration of foot shock were recorded on a mechanically operated clock.

[4] = system: βAPP in human neuroblastoma cell lines; assay: Cellular and secreted βAPP levels by immunoblot; type: cell-based
Description: In further studies, the actions of selective AChE (Compounds 2, 3, (phenserine and tolserine) Table 1) and BChE (Compound 4 (cymserine), Table 1) inhibitors were assessed against human neuroblastoma cell lines. Both secreted levels, measured in the conditioned medium, and cellular levels of βAPP, measured in the cell lysates, were assessed and compared to levels achieved in untreated cells.
A methodology that can be employed to determine the ability of a selected compound to regulate cellular and secreted βAPP levels is as follows:
1 to 1.5×10^7 of each cell type (neuronal and non-neuronal) are cultured in their respective medium. Before adding drug, the cells are fed with media containing only 0.5% of FBS (low serum). The cells are then incubated either in the absence or presence of the test compound. Following incubation periods from 12 to 48 hours, the conditioned medium from each plate is collected and both it and the cells are centrifuged at 800 g. for 10 minutes. The conditioned medium is collected and the cells lysed in buffer containing 50 mM Tris-Cl (pH 8.0), 150 mM NaCl, 5 mM EDTA, 2 mM PMSF, 0.5% sodium deoxycholate, 1 ug/ml each of aprotonin, leupeptin and TLCK, and 0.1 ug/ml of pepstatin A. The cells are centrifuged for 10 min at 11,000 g at 4° C. Proteins of the supernatant solution (cell lysate) are measured by the Bradford dye-binding procedure (Bradford, Anal. Biochem. 72: 248-254, 1976).
For polyacrylamide gel electrophoresis and immunoblotting: in control experiments, an equivalent concentration of ethanol was used as a vehicle which is less than 1% in media. Compound dosages of from about 0.15 mM to 0.5 mM may be used. 100 uL of conditioned media or 30 ug of protein from the total cell lysate is separated on a 12% polyacrylamide gel containing SDS (SDS-PAGE). Immunoblot analysis was performed using the avidinbiotyinylated complex detection kit of Vector Laboratories as described by Lahiri, et al., J. Neurosci: Res. 12:777-787 (1994). The antisera employed is from the mAb22C11 clone (Boehringer Mannheim) which recognizes all mature forms of βAPP found in cell membranes as well as the carboxyltruncated soluble forms secreted into the conditioned media and the APP-like protein. Additionally, the mAb6E10 is employed which recognizes residues 1 to 28 of Aβ. […] Biotinylated secondary antibodies, horse anti-mouse and goat anti-rabbit (Boehringer Mannheim, and Vector Labs) are also used.

secreted βAPP in CSF = assay: CSF βAPP in rats with or without forebrain cholinergic (nbM) lesions; type: in vivo, rat
Source text: Cymserine, a representative of selective BChE inhibitors, additionally alters βAPP synthesis/processing in vivo.
A methodology that can be employed to determine the ability of a selected compound to regulate secreted βAPP levels in vivo is as follows:
For forebrain cholinergic system lesions, rats receive a unilateral subcortical lesion of the nucleus basalis of Meynert (nbM) using N-methyl-D-aspartate (NMDA) as an excitotoxin. In undertaking this, rats are anesthetized and placed in a stereotaxic apparatus with the upper incisor bar set level with the intra-aural line. A 33 gauge infusion cannula is lowered into two sites within the nbM on one side of the brain (AP bregma, ML −2.8 mm, DV −8.0 mm re: skull and AP bregma −0.8 mm, ML −3.0 mm, DV −7.8 mm, respectively). One microliter of a solution of 50 mM NMDA in PBS buffer (physiological pH) is slowly infused into each site. Controls for the lesion are vehicle alone and the contralateral side of NMDA treated animals.
Collection of CSF for analysis of βAPP levels is undertaken by withdrawal of an aliquot from the cistern magna of rats immediately following their death. Quantitation of βAPP is undertaken by immunoblot analysis utilizing mAb22C11.

[5] = Brain and plasma time-dependent kinetics by HPLC; type: in vivo; settings: rat
Description: Determination of the brain and plasma time-dependent kinetics of cymserine in the rats is undertaken by administering compound into the saphenous vein of anesthetized animals. Animals are killed by excess anesthetic at specific times and blood and brain samples are immediately taken. The blood is centrifuged (10,000 g, 2 min), plasma is collected and, together with the sample of brain, is stored at −80° C. Quantitation of concentrations of cymserine is undertaken by high performance liquid chromatography.

[6] = 1.0 mg kg, blocks 3 and 4 vs controls

T1 sequence (P06276 29-602): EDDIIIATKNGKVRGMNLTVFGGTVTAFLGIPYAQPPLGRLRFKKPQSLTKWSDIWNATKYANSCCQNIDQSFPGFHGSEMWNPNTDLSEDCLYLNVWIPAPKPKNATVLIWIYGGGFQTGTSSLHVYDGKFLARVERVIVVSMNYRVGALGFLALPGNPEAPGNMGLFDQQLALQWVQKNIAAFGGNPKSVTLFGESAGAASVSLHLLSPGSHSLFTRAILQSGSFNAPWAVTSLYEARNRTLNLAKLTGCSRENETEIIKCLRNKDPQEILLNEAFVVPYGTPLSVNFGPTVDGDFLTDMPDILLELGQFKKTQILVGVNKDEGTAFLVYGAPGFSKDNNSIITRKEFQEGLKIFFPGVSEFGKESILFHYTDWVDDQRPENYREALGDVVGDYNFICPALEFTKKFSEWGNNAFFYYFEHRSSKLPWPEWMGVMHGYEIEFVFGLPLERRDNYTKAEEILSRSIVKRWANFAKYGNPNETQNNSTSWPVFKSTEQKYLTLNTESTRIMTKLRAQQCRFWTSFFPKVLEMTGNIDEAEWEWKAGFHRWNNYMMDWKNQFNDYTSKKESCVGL

Compound: 3′-methyl-carbamoyl eseroline
- selectivity of inhibitory action for BChE versus AChE (human plasma BChE): does not provide BChE selectivity

Compound: Nc1ccncc1N [3,4 diaminopyridine]
- secretion of βAPP [1]: none of the other drugs, all classical anticholinesterases, produced a change

Compound: Cc1ccccc1NC(=O)Oc1ccc2c(c1)[C@]1(C)CCN(C)[C@@H]1N2C [Compound 3, tolserine, reference compound]
- selectivity of inhibitory action for BChE versus AChE (human plasma BChE): no selectivity for BChE

Compound: CC(C)c1ccc(NC(=O)Oc2ccc3c(c2)[C@]2(C)CCN(C)[C@@H]2N3C)cc1 [Compound 4, cymserine]
- selectivity of inhibitory action for BChE versus AChE (human plasma BChE): selectivity for BChE inhibition
- effects of drug treatment during pretraining ([2]; all dose groups vs control): No effects
- mean (s.e.m.) avoidances ([2]; 1 mg kg cymserine group): 65% (2.8)
- mean (s.e.m.) avoidances ([2]; 2 mg kg cymserine group): 63% (3.8)
- mean (s.e.m.) avoidances ([2]; 3 mg kg cymserine group): 61% (3.9)
- errors across all trials ([3]; 1 mg kg group vs controls): significantly improved performance
- shock duration ([3]; 1.0 mg kg, block 2): significantly reduced
- run time [3, 6]: significantly reduced
- shock duration [3, 6]: significantly reduced
- shock frequency [3, 6]: significantly reduced
- errors across all trials ([3]; 2 mg kg group vs controls): significantly improved performance
- run time ([3]; 2.0 mg kg, block 4): significantly reduced
- shock duration ([3]; 2.0 mg kg, block 4): significantly reduced
- shock frequency ([3]; 2.0 mg kg, block 4): significantly reduced
- errors in the Stone maze ([3]; 3 mg kg dose): least effective
- motoric side effects ([3]; 3 mg kg dose, a few rats): fine tremor
- shock duration ([3]; 3.0 mg kg, block 4): significantly different from controls
- number of errors made in the Stone maze ([3]; all doses, compared with control condition): significantly reduced
- learning / cognitive performance of aged rats in the Stone maze ([3]; chronic treatment (5 days)): improves cognitive performance; also recorded: markedly improved
- side effects ([3]; doses other than 3 mg kg): no side effects were noted
- cellular levels of βAPP ([4]; cell lysates, compared to untreated cells): dramatically reduced
- secreted βAPP levels ([4]; conditioned medium, compared to untreated cells): reduced
- βAPP levels assessed by mAb22C11 and 6E10 ([4]; immunoblot, FIG. 2): dramatically reduce
- effect on other secretory proteins, such as HSP-70 ([4]; immunoblot, selectivity control): without affecting
- levels of βAPP in CSF (secreted βAPP in CSF; animals without cholinergic lesions, cymserine alone versus pure control rats): reduced
- elevation of secreted βAPP in CSF (secreted βAPP in CSF; rats with forebrain cholinergic lesions, intraperitoneal twice daily for 7 days): blocks the elevation
- CSF βAPPγ levels (secreted βAPP in CSF; rats, FIG. 3 legend): reduces
- brain levels relative to plasma levels ([5]; 1 mg/kg by the intravenous route): ~40 fold
- crossing of the blood-brain barrier ([5]; systemic administration): readily cross the blood-brain barrier

Compound: C=CCN1CCC2(C)c3cc(OC(=O)NC)ccc3N(C)C12 (stereo not drawn) [Compound 20, N^1-allylnorphysostigmine]
- selectivity of inhibitory action for BChE versus AChE (human plasma BChE): provide BChE selectivity

Compound: CNC(=O)Oc1ccc2c(c1)[C@]1(C)CCS[C@@H]1N2C [Compound 22, thiaphysovenine]
- selectivity of inhibitory action for BChE versus AChE (human plasma BChE): selectivity of inhibitory action for BChE

Compound: CNC(=O)Oc1ccc2c(c1)[C@]1(C)CCO[C@@H]1N2C [Compound 26, physovenine]
- selectivity of inhibitory action for BChE versus AChE (human plasma BChE): selectivity of inhibitory action for BChE

Compound: CNC(=O)Oc1ccc2c(c1)C1(C)CCN(C)C1N2Cc1ccccc1 (stereo not drawn) [Compound 30, N^8-benzylnorphysostigmine]
- selectivity of inhibitory action for BChE versus AChE (human plasma BChE): potent and selective inhibitors of BChE

Compound: CNC(=O)Oc1ccc2c(c1)[C@]1(C)CCN(C)C1N2 (stereo partly drawn) [Compound 34, N^8-norphysostigmine]
- selectivity of inhibitory action for BChE versus AChE (human plasma BChE): potent and selective inhibitors of BChE

Compound: COP(=O)(OC)C(O)C(Cl)(Cl)Cl (stereo not drawn) [metrifonate]
- secretion of βAPP [1]: none of the other drugs, all classical anticholinesterases, produced a change

Compound: Nc1c2c(nc3ccccc13)CCCC2 [tacrine]
- secretion of βAPP [1]: reducing it
